Measurements taken from PMC9743095 (Journal of Medicinal Chemistry, 2022).
Read-outs that look alike come from different tables or passages of the source.

Columns and labels:
[1] = test system: NCI-H929; assay: cells; assay type: cell-based; settings: for CC50: Homo sapiens, NCI-H929, 72 h, read-out: LC50; for MI%: NCI-H929, maximum inhibitory effect over concentration range
Description: (§1) The assay was contracted and carried out by WuXi AppTec (Shanghai) Co., Ltd. The tumor cell lines CCRF-CEM, HL-60, KG-1, MOLT-4, K562, MV4-11, THP-1, HEL92.1.7, NCI-H929, RPMI-8226, Jurkat, Z138, RL, HS445, HepG2, MCF-7, Bx-PC-3, HT29, MIA PaCa-2, and SW620 were seeded at cell densities of […] 10^3 cells/well in a 96-well plate the day before drug incubation. Then, the plates were incubated for 72 h with the different concentrations of compound to be tested. After the incubation period, 50 μL of MTS was added and the tumor cells were incubated for 4 h at 37 °C. The data were read and collected by a Spectra Max 340 absorbance microplate reader. The compounds were tested in duplicate with nine serial concentrations (3.16-fold titrations with 198 μM as the highest concentration), and the data were analyzed by XLfit software.

[2] = test system: HepG2; assay: cells; assay type: cell-based; settings: Homo sapiens; for Emax: read-out: MI%; for CC50: read-out: LC50
Description: as §1

[3] = test system: MV4-11; assay: cells; assay type: cell-based; settings: for CC50: Homo sapiens, MV4-11, 72 h, read-out: LC50; for MI%: MV4-11, maximum inhibitory effect over concentration range
Description: as §1

[4] = test system: THP-1; assay: cells; assay type: cell-based; settings: for CC50: Homo sapiens, THP-1, 72 h, read-out: LC50; for MI%: THP-1, maximum inhibitory effect over concentration range
Description: as §1

[5] = test system: KG-1; assay: cells; assay type: cell-based; settings: Homo sapiens, KG-1, 72 h, read-out: LC50
Description: as §1

[6] = test system: CCRF-CEM; assay: cells; assay type: cell-based; settings: Homo sapiens, 72 h; for Emax: read-out: MI%; for CC50: read-out: LC50
Description: as §1

[7] = test system: K562; assay: cells; assay type: cell-based; settings: Homo sapiens; for Emax: read-out: MI%; for CC50: read-out: LC50
Description: as §1

[8] = test system: RL; assay: cells; assay type: cell-based; settings: for CC50: Homo sapiens, 72 h, read-out: LC50; for MI%: maximum inhibitory effect over concentration range
Description: as §1

[9] = test system: BxPC-3; assay: cells; assay type: cell-based; settings: for MI%: BxPC-3, maximum inhibitory effect over concentration range; for CC50: Homo sapiens, BXPC-3, 72 h, read-out: LC50
Description: as §1

[10] = test system: HT29; assay: cells; assay type: cell-based; settings: for MI%: HT29, maximum inhibitory effect over concentration range; for CC50: Homo sapiens, HT-29, 72 h, read-out: lC50
Description: as §1

[11] = test system: MOLT-4; assay: cells; assay type: cell-based; settings: Homo sapiens; for Emax: read-out: MI%; for CC50: read-out: LC50
Description: as §1

[12] = test system: HEL92.1.7; assay: cells; assay type: cell-based; settings: for MI%: HEL92.1.7, maximum inhibitory effect over concentration range; for CC50: Homo sapiens, HEL 92.1.7, 72 h, read-out: LC50
Description: as §1

[13] = test system: MIA PaCa-2; assay: cells; assay type: cell-based; settings: for CC50: Homo sapiens, MIA PaCa-2, 72 h, read-out: LC50; for MI%: MIA PaCa-2, maximum inhibitory effect over concentration range
Description: as §1

[14] = test system: RPMI-8226; assay: cells; assay type: cell-based; settings: for CC50: Homo sapiens, RPMI-8226, 72 h, read-out: LC50; for MI%: RPMI-8226, maximum inhibitory effect over concentration range
Description: as §1

[15] = test system: Z138; assay: cells; assay type: cell-based
Description: as §1

[16] = test system: SW620; assay: cells; assay type: cell-based; settings: for CC50: Homo sapiens, SW-620, 72 h, read-out: LC50; for MI%: SW620, maximum inhibitory effect over concentration range
Description: as §1

[17] = test system: MCF-7; assay: cells; assay type: cell-based; settings: Homo sapiens, MCF7, 72 h; for CC50: read-out: LC50; for Emax: read-out: MI%
Description: as §1

[18] = test system: Jurkat; assay: cells; assay type: cell-based; settings: Jurkat; for CC50: Homo sapiens, 72 h, read-out: LC50; for MI%: maximum inhibitory effect over concentration range
Description: as §1

[19] = test system: HS445; assay: cells; assay type: cell-based; settings: for MI%: HS445, maximum inhibitory effect over concentration range; for CC50: Homo sapiens, Hs 445, 72 h, read-out: LC50
Description: as §1

[20] = test system: HL-60; assay: cells; assay type: cell-based; settings: Homo sapiens; for Emax: read-out: MI%; for CC50: read-out: LC50
Description: as §1

[21] = cited from earlier work

SMILES | CC50 [1] [µM] | MI% [1] [%] | CC50 [3] [µM] | MI% [3] [%] | CC50 [4] [µM] | MI% [4] [%] | CC50 [5] [µM] | CC50 [6] [µM] | CC50 ([7]; K562, 72 h) [µM] | CC50 [8] [µM] | MI% [8] [%] | MI% [9] [%] | CC50 [9] [µM] | MI% [10] [%] | CC50 [10] [µM] | CC50 ([11]; MOLT-4, 72 h) [µM] | MI% [12] [%] | CC50 [12] [µM] | CC50 [13] [µM] | MI% [13] [%] | further results
CC(=O)O[C@H]1C(=O)[C@@]2(C)[C@H]([C@H](OC(=O)c3ccccc3)[C@]3(O)C[C@H](OC(=O)[C@H](O)[C@@H](NC(=O)c4ccccc4)c4ccccc4)C(C)=C1C3(C)C)[C@]1(OC(C)=O)CO[C@@H]1C[C@@H]2O [PTX, paclitaxel, reference compound] | 0.003 | 82 | 0.01 | 99 | 0.03 | 72 | 0.07 | 0.003 | 0.008 | 0.003 | 83 | 42 | > 0.5 | 75 | 0.004 | 0.002 | 83 | 0.02 | 0.002 | 87 | Emax ([2]; 72 h, HepG2, maximum inhibitory effect over concentration range): 54%; Emax ([6]; maximum inhibitory effect over concentration range): 95%; Emax ([7]; 72 h, K562, maximum inhibitory effect over concentration range): 94%; Emax ([11]; 72 h, MOLT-4, maximum inhibitory effect over concentration range): 97%; CC50 [14]: 0.003 µM; MI% [14]: 91%; CC50 ([15]; Homo sapiens, Z-138, 72 h, read-out: LC50): 0.002 µM; MI% ([15]; Z138, maximum inhibitory effect over concentration range): 99%; CC50 [16]: 0.02 µM; MI% [16]: 96%; CC50 [17]: 0.003 µM; Emax ([17]; MCF-7, maximum inhibitory effect over concentration range): 79%; CC50 [18]: 0.005 µM; MI% [18]: 97%; MI% [19]: 74%; CC50 [19]: 0.01 µM; Emax ([20]; 72 h, HL-60, maximum inhibitory effect over concentration range): 96%; CC50 ([20]; HL-60, 72 h): 0.004 µM
C[C@H](N[P@@](=O)(OC[C@@H]1C[C@@H](O)[C@H](n2cnc3c(N)ncnc32)O1)Oc1ccccc1)C(=O)OCc1ccccc1 [Rp-7a] | 19 | 97 | 0.98 | 100 | 35 | 91 | 14 | 1.86 | 2.6 | 4 | 96.8 | 71 | 74 | 97 | 16 | 0.57 | 98 | 11 | 14 | 96 | CC50 ([2]; HepG2, 72 h): 32 µM; Emax ([2]; HepG2, 72 h): 78%; Emax [6]: 97%; Emax ([7]; K562, 72 h): 95%; Emax ([11]; MOLT-4, 72 h): 98%; CC50 [14]: 25 µM; MI% [14]: 90.8%; CC50 [16]: 29 µM; MI% [16]: 82%; CC50 [17]: 2.94 µM; Emax [17]: 97%; CC50 [18]: 2.82 µM; MI% [18]: 97%; MI% [19]: 99%; CC50 [19]: 42 µM; CC50 ([20]; HL-60, 72 h): 8.7 µM; Emax ([20]; HL-60, 72 h): 100%
C[C@H](N[P@](=O)(OC[C@@H]1C[C@@H](O)[C@H](n2cnc3c(N)ncnc32)O1)Oc1ccccc1)C(=O)OCc1ccccc1 [Sp-7a] | 16 | 94 | 1.03 | 100 | 66 | 69 | 18 | 2.04 | 3 | 2.64 | 92.6 | 73 | 99 | 95 | 25 | 0.43 | 100 | 11 | 18 | 94 | CC50 ([2]; HepG2, 72 h): 57 µM; Emax ([2]; HepG2, 72 h): 73%; Emax [6]: 97%; Emax ([7]; K562, 72 h): 96%; Emax ([11]; MOLT-4, 72 h): 98%; CC50 [14]: 19 µM; MI% [14]: 86.8%; CC50 [16]: 35 µM; MI% [16]: 87%; CC50 [17]: 5.87 µM; Emax [17]: 94%; CC50 [18]: 2.29 µM; MI% [18]: 90%; MI% [19]: 75%; CC50 [19]: 67 µM; CC50 ([20]; HL-60, 72 h): 11 µM; Emax ([20]; HL-60, 72 h): 92%
CC(C)OC(=O)[C@H](C)N[P@](=O)(CO[C@H](C)Cn1cnc2c(N)ncnc21)Oc1ccccc1 [TAF, Tenofovir Alafenamide] |  |  |  |  |  |  |  |  |  |  |  |  |  |  |  |  |  |  |  |  | Sp isomer fold more active than the Rp isomer [21]: 10 fold
CC(C)OC(=O)[C@H](C)N[P@](=O)(OC[C@H]1O[C@@H](n2ccc(=O)[nH]c2=O)[C@](C)(F)[C@@H]1O)Oc1ccccc1 [sofosbuvir] |  |  |  |  |  |  |  |  |  |  |  |  |  |  |  |  |  |  |  |  | Sp isomer fold more active than the Rp isomer [21]: 18 fold
